Experimental data as given in paper PMC10994559 (PLOS Neglected Tropical Diseases, 2024).
Where “and” joins values, the source holds several entries; their conditions need not be identical. Identical values can stand only once. Like-named read-outs stand apart in the source and are kept apart here.

Columns and labels:
[1] = system: intracellular L. infantum amastigotes; experiment: Parasite rescue assay (intramacrophage, J774 infected with L. infantum); type: cell-based, Leishmania infantum
[2] = Body weight and tolerability during treatment in the mouse model; type: in vivo, Balb/c mice; settings: for Body weight during treatment course: PHT-39 13.75 mg/kg i.p. or s.c., AmB 8 mg/kg i.p., vs DMSO
Protocol: L. major metacyclic promastigotes were prepared from a five day stationary phase culture through Ficoll gradient centrifugation according to previous studies with minor changes: Briefly, a 20% and 10% Ficoll gradient were prepared in PBS and M199 media, respectively and placed in a 14 ml falcon tube. Then, 1x10^9 L. major promastigotes were loaded on top of gradient and centrifuged. Metacyclic parasites were collected between two layers. Four groups of mice (n = 6) were challenged by subcutaneous injection of 2x10^6 stationary phase metacyclic promastigotes (50 μl in PBS) into the left hind footpad. Two weeks after infectious challenge, animals were treated by i.p or intralesional (s.c) PHT-39 injection (13.75 mg/kg body weight), daily or every other day, respectively, for ten days. AmB (8 mg/kg body weight) was applied as positive control drug (i.p injection for ten days) and 5% DMSO in distilled water was applied as negative control (s.c injection for ten days) (Table 1).
Every four days after the challenge, body weight was monitored and footpad swelling changes were measured (Footpad swelling = (height + width)/2) with a metric caliper (Kroeplin, IP65, D-series, external measuring gauge).

T. brucei BSF proteome = experiment: Label-free LC-MS/MS proteomics after PHT-39 exposure; type: cell-based, Trypanosoma brucei
Protocol: 4 x 10^7 cells were harvested by centrifugation (1000*g) after 48 h from cultures in logarithmic growth phase and washed thrice with PBS. Samples were subjected to lysis, tryptic digest and reductive alkylation using standard procedures. LC-MS/MS was performed by the OMICS Proteomics Facility at Charles University Biocev on an UltiMate 3000 RSLCnano System (Thermo Fisher Scientific) coupled to a Orbitrap Fusion mass spectrometer (Thermo Fisher Scientific). Mass spectra were analyzed by label-free quantification using MaxQuant version 2.1.0.0 [30] searching the T. brucei brucei 927 annotated protein database (release 57) from TriTrypDB [31]. Minimum peptide length was set at seven amino acids and false discovery rates of 0.01 were calculated at the levels of peptides, proteins, and modification sites based on the number of hits against the reversed sequence database. When the identified peptide sequence set of one protein contained the peptide set of another protein, these two proteins were assigned to the same protein group. P-values were calculated, applying t-test–based statistics using Perseus. Proteomics data have been deposited to the ProteomeXchange Consortium via the PRIDE partner repository with the data set identifier PXD043204.

E. histolytica = E. histolytica viability, ATP luminescence (Cell titer glo); type: cell-based, Entamoeba histolytica; settings: Entamoeba histolytica, 48 h
How it was run: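 E. histolytica strain B2-5 at 2.5x10^4 cells/ml was exposed to compound for 48 h at 37 °C under anaerobic conditions, with viability read as ATP luminescence (CellTiter-Glo). The primary screen used 25 μM in triplicate, and follow-up potency runs used 9–16-point ranges spanning 0.01–100 μM.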

[3] = Leishmania infantum, J774, read-out: EC50 L. infantum rescue assay, intramacrophage (J774), 18 concentrations

Q: For `C[C@@H]1[C@H](O)[C@@H](C)/C=C/C=C/C=C/C=C/C=C/C=C/C=C/[C@H](O[C@@H]2O[C@H](C)[C@@H](O)[C@H](N)[C@@H]2O)C[C@@H]2O[C@](O)(C[C@@H](O)C[C@@H](O)[C@H](O)CC[C@@H](O)C[C@@H](O)CC(=O)O[C@H]1C)C[C@H](O)[C@H]2C(=O)O` [AmB, amphotericin B, reference compound], which EC50 [1, 3] is on record?
A: The EC50 was 600 nM.

Q: And the viability at 25 µM ([1]; Leishmania infantum, J774, read-out: Residual viability, intracellular L. infantum amastigote (25 µM))?
A: The viability at 25 µM was 15.4 ± 6.9%.

Q: And the EC50 ([1]; read-out: EC50 L. infantum rescue assay, intramacrophage (J774), 18 concentrations)?
A: The EC50 was 700 nM and 660 nM.

Q: And the “Body weight during treatment course” value [2]?
A: The value was “significant differences with other groups”.

Q: What does the source list for `CC[C@@H](C)[C@H](c1nc2ccccc2n1Cc1cn(-c2ccc(C(F)(F)F)cc2)nn1)N1C(=O)c2ccccc2C1=O` [PHT-39]?
A: Abundance change FAZ localized protein Tb927.1.4280 (T. brucei BSF proteome; 3.9 μM (1× EC50), 48 h): 0.62 fold; Abundance change Hsp104 homolog Tb927.2.5980 (T. brucei BSF proteome; 3.9 μM (1× EC50), 48 h): 1.4 fold; Abundance change PIP39 (Tb927.9.6090) (T. brucei BSF proteome; 3.9 μM (1× EC50), 48 h): 1.6 fold; Abundance change axonemal protein SAXO (Tb927.8.6240) (T. brucei BSF proteome; 3.9 μM (1× EC50), 48 h): 0.65 fold; PHT-39 ratio (protein abundance) (T. brucei BSF proteome; protein 2-oxoglutarate dehydrogenase E1 component, Tb927.11.1450): 1.73; PHT-39 ratio (protein abundance) (T. brucei BSF proteome; protein 2-oxoglutarate dehydrogenase E1 component, Tb927.11.9980): 1.93; PHT-39 ratio (protein abundance) (T. brucei BSF proteome; protein ACS1, Tb927.7.6180): - ∞; PHT-39 ratio (protein abundance) (T. brucei BSF proteome; protein Aconitase, Tb927.10.14000): 1.39; PHT-39 ratio (protein abundance) (T. brucei BSF proteome; protein CIF1 (TOEFAZ1), Tb927.11.15800): 0.46; PHT-39 ratio (protein abundance) (T. brucei BSF proteome; protein CIF3, Tb927.10.13100): - ∞; PHT-39 ratio (protein abundance) (T. brucei BSF proteome; protein CIF4, Tb927.10.8240): 0.88; PHT-39 ratio (protein abundance) (T. brucei BSF proteome; protein F1 alpha, Tb927.7.7430, Tb927.7.7420): 1.31; PHT-39 ratio (protein abundance) (T. brucei BSF proteome; protein F1 beta, Tb927.3.1380): 1.33; PHT-39 ratio (protein abundance) (T. brucei BSF proteome; protein F1 gamma, Tb927.10.180): 1.23; PHT-39 ratio (protein abundance) (T. brucei BSF proteome; protein F1 p18, Tb927.5.1710): 1.90; PHT-39 ratio (protein abundance) (T. brucei BSF proteome; protein FPRC, Tb927.10.6360): 0.72; PHT-39 ratio (protein abundance) (T. brucei BSF proteome; protein Fo 8, Tb927.4.3450): ∞; PHT-39 ratio (protein abundance) (T. brucei BSF proteome; protein Fo ATBTB1, Tb927.10.520): 1.48; PHT-39 ratio (protein abundance) (T. brucei BSF proteome; protein Fo ATBTB3, Tb927.11.6250): 1.53; PHT-39 ratio (protein abundance) (T. brucei BSF proteome; protein Fo ATBTB4, Tb927.10.9830): 1.36; PHT-39 ratio (protein abundance) (T. brucei BSF proteome; protein Fo ATBTB6, Tb927.11.1270): 1.40; PHT-39 ratio (protein abundance) (T. brucei BSF proteome; protein Fo ATBTB12, Tb927.5.3090): 3.78; PHT-39 ratio (protein abundance) (T. brucei BSF proteome; protein Fo OSCP, Tb927.10.8030): 2.93; PHT-39 ratio (protein abundance) (T. brucei BSF proteome; protein Fo d, Tb927.5.2930): 1.35; PHT-39 ratio (protein abundance) (T. brucei BSF proteome; protein Fo e, Tb927.11.600): 1.09; PHT-39 ratio (protein abundance) (T. brucei BSF proteome; protein Fo f, Tb927.3.1690): 1.36; PHT-39 ratio (protein abundance) (T. brucei BSF proteome; protein Fo i/j, Tb927.3.2880): 1.66; PHT-39 ratio (protein abundance) (T. brucei BSF proteome; protein Fo k, Tb927.7.840): 3.17; PHT-39 ratio (protein abundance) (T. brucei BSF proteome; protein Glutamate dehydrogenase, Tb927.9.5900): 1.53; PHT-39 ratio (protein abundance) (T. brucei BSF proteome; protein PIP39, Tb927.9.6090): 1.62; PHT-39 ratio (protein abundance) (T. brucei BSF proteome; protein PPDK, Tb927.11.6280): ∞; PHT-39 ratio (protein abundance) (T. brucei BSF proteome; protein Proline dehydrogenase, Tb927.7.210): 1.66; PHT-39 ratio (protein abundance) (T. brucei BSF proteome; protein SAXO, Tb927.8.6240): 0.65; PHT-39 ratio (protein abundance) (T. brucei BSF proteome; protein Tb927.1.4280): 0.63; Difference (LFQ intensity treated vs untreated) (T. brucei BSF proteome; protein Tb927.10.4770, phosphatidylinositol-4-phosphate 5-kinase, putative): 2.042; Difference (LFQ intensity treated vs untreated) (T. brucei BSF proteome; protein Tb927.4.3450, Mitochondrial ATP synthase subunit, putative): 5.909; Difference (LFQ intensity treated vs untreated) (T. brucei BSF proteome; protein Tb927.6.980;Tb927.6.970;Tb927.6.960;Tb927.6.1020;Tb927.6.1010, cysteine peptidase, Cathepsin L-like): 5.36; Difference (LFQ intensity treated vs untreated) (T. brucei BSF proteome; protein Tb927.7.2660, zinc finger protein family member, putative): 3.448; Difference (LFQ intensity treated vs untreated) (T. brucei BSF proteome; protein Tb927.9.12700, phospholipase A1, putative): 3.03; PHT-39 ratio (protein abundance) (T. brucei BSF proteome; protein citrate synthase, Tb927.10.13430): 1.66; PHT-39 ratio (protein abundance) (T. brucei BSF proteome; protein isocitrate dehydrogenase, Tb927.8.3690): 1.46; PHT-39 ratio (protein abundance) (T. brucei BSF proteome; protein mitochondrial malate dehydrogenase, Tb927.10.2560): 1.32; PHT-39 ratio (protein abundance) (T. brucei BSF proteome; protein succinyl-CoA ligase beta-chain, Tb927.10.7410): 1.79; PHT-39 ratio (protein abundance) (T. brucei BSF proteome; protein succinyl-CoA synthetase alpha subunit, Tb927.3.2230): 1.72; EC50 [1, 3]: 1200 ± 3200 nM; viability at 25 µM ([1]; Leishmania infantum, J774, rescue assay in J774, 25 µM, read-out: Residual viability, intracellular L. infantum amastigote (25 µM)): 16.3%; EC50 ([1]; read-out: EC50 L. infantum rescue assay, intramacrophage (J774), 18 concentrations, listed as PH-39): 1210 ± 3200 nM; Residual viability, intracellular L. infantum amastigote (25 µM) ([1]; rescue assay in J774, 25 µM, 25 µM): 16.34±4.67%; viability at 2.5 µM (E. histolytica; read-out: Residual viability, E.histolytica (2.5 µM)): 81.6 ± 12.6%; viability at 25 µM (E. histolytica; read-out: Residual viability, E.histolytica (25 µM)): 44.5 ± 9.9%; Body weight during treatment course [2]: did not affect the body weight; Compound related toxicity in mice ([2]; intraperitoneal or subcutaneous injection for 10 and 5 days): did not expose any compound related toxicity
